Laboratory results from US20050124562A1, “Bis-quinazoline compounds for the treatment of bacterial infections” (priority 2003, published 2005).
≈ marks a conversion by molar mass, not a printed value. Structures can show the parent of a compound that is named as a salt. Where two headings read alike, the source gives them in different places.

How the values were obtained:
Format in all cases: cell-based
[1] = system: S. aureus, E. faecalis, S. pyogenes and S. pneumoniae; assay: Broth microdilution MIC (NCCLS), gram-positive strains
Method in brief: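 MICs by broth microdilution per NCCLS M-7 A-6 against ATCC strains, including ORSA and VRE; MBCs determined for selected organisms. Serum effect assessed by repeating MIC tests with human serum present.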

M. catarrhalis = assay: Broth microdilution MIC (NCCLS), M. catarrhalis; conditions: Moraxella catarrhalis, read-out: MIC range
Experimental: (§1) Representative bis-quinazolines were tested for antibacterial activity using the […] microdilution method to determine their minimum inhibitory concentrations (MICs). All compounds were tested using standard methods in accordance with NCCLS guidelines (National Committee for Clinical Laboratory Standards. 2003. Methods for dilution antimicrobial susceptibility testing for bacteria that grow aerobically. Approved Standard M-7 A-6, NCCLS, Wayne, Pa.). The bacterial strains used in the susceptibility tests were obtained from the American Type Culture Collection (ATCC) and included resistant phenotypes such as oxacillin-resistant S. aureus (ORSA) and vancomycin-resistant enterococci (VRE). The minimum bactericidal concentrations (MBCs) were determined for selected organisms. The effect of protein binding on the antibacterial activity of representative bis-quinazolines were determined by conducting MIC tests in the presence of human serum.

H. influenzae = assay: Broth microdilution MIC (NCCLS), H. influenzae; conditions: Haemophilus influenzae; some strains of H. influenzae
Experimental: as §1

[2] = system: efflux mutants of E. coli; assay: Broth microdilution MIC (NCCLS), E. coli efflux mutants; conditions: Escherichia coli, read-out: MICs
Experimental: as §1

[3] = system: efflux mutants of P. aeruginosa; assay: Broth microdilution MIC (NCCLS), P. aeruginosa efflux mutants; conditions: for MIC: Pseudomonas aeruginosa, read-out: MICs
Experimental: as §1

[4] = range against some strains of S. aureus, E. faecalis, S. pyogenes and S. pneumoniae, read-out: MIC

Compound	MIC [1]	MIC (M. catarrhalis)	MIC (H. influenzae)	MIC [2]	MIC [3]	MIC [1, 4]	MIC (M. catarrhalis; some strains of M. catarrhalis)	MICs ([3]; efflux mutants of P. aeruginosa)
Cc1nc(Nc2nc(C)c3ccc4c(c3n2)OCCO4)nc2ccc(OCCN3CCC(O)C3)cc12 (stereo not shown) [Example 12, 1-{2-[4-Methyl-2-(8-methyl-2,3-dihydro-1,4-dioxa-5,7-diaza-phenanthren-6-ylamino)-quinazolin-6-yloxy]-ethyl}-pyrrolidin-3-ol]	0.06 to 16 µg/mL (≈ 0.123 to 32.8 µM)	2 to 64 µg/mL (≈ 4.09 to 131 µM)	16 to 32 µg/mL (≈ 32.8 to 65.5 µM)	16 to 64 µg/mL (≈ 32.8 to 131 µM)	64 µg/mL (≈ 131 µM)	–	–	–
COc1ccc2nc(Nc3nc(O)c4cc(OC)c(OC)c(OC)c4n3)nc(C)c2c1.O=C(O)C(F)(F)F [Example 18, 6,7,8-Trimethoxy-2-(6-methoxy-4-methyl-quinazolin-2-ylamino)-quinazolin-4-ol trifluoroacetate salt]	–	–	16 to 32 µg/mL	16 to 64 µg/mL	64 µg/mL	0.06 to 16 µg/mL	2 to 64 µg/mL	–
COc1ccc2nc(Nc3nc(O)c4cc(C)cc(C)c4n3)nc(C)c2c1 [Example 19, 2-(6-Methoxy-4-methyl-quinazolin-2-ylamino)-6,8-dimethyl-quinazolin-4-ol]	0.06 to 16 µg/mL (≈ 0.166 to 44.3 µM)	2 to 64 µg/mL (≈ 5.53 to 177 µM)	16 to 32 µg/mL (≈ 44.3 to 88.5 µM)	16 to 64 µg/mL (≈ 44.3 to 177 µM)	64 µg/mL (≈ 177 µM)	–	–	–
COc1ccc2nc(Nc3nc(O)c4cc(C)cc(Br)c4n3)nc(C)c2c1 [Example 39, 8-Bromo-2-(6-methoxy-4-methyl-quinazolin-2-ylamino)-6-methyl-quinazolin-4-ol trifluoroacetate salt]	0.06 to 16 µg/mL	2 to 64 µg/mL	16 to 32 µg/mL	16 to 64 µg/mL	64 µg/mL	–	–	–
COc1cc2c(C)nc(Nc3nc(O)c4cccc(OC)c4n3)nc2cc1[N+](=O)[O-].O=C(O)C(F)(F)F [Example 77, 2-(6-methoxy-7-nitro-4-methyl-quinazolin-2-ylamino)-8-methoxy-quinazolin-4-ol trifluoroacetate salt]	–	–	16 to 32 µg/mL	16 to 64 µg/mL	64 µg/mL	0.06 to 16 µg/mL	2 to 64 µg/mL	–
COc1cc2nc(Nc3nc(O)c4c(OC)cccc4n3)nc(C)c2cc1OC.O=C(O)C(F)(F)F [Example 84, 2-(6,7-Dimethoxy-4-methyl-quinazolin-2-ylamino)-5-methoxy-quinazolin-4-ol trifluoroacetate salt]	–	–	16 to 32 µg/mL	16 to 64 µg/mL	64 µg/mL	0.06 to 16 µg/mL	2 to 64 µg/mL	–
COc1cc(OC)c2nc(Nc3nc(O)c4c(OC)cccc4n3)nc(C)c2c1.O=C(O)C(F)(F)F [Example 85, 2-(6,8-Dimethoxy-4-methyl-quinazolin-2-ylamino)-5-methoxy-quinazolin-4-ol trifluoroacetate salt]	–	–	16 to 32 µg/mL	16 to 64 µg/mL	64 µg/mL	0.06 to 16 µg/mL	2 to 64 µg/mL	–
COc1cc2c(C)nc(Nc3nc(O)c4cccc(OC)c4n3)nc2cc1F.O=C(O)C(F)(F)F [Example 86, 2-(7-Fluoro-6-methoxy-4-methyl-quinazolin-2-ylamino)-8-methoxy-quinazolin-4-ol trifluoroacetate salt]	–	–	16 to 32 µg/mL	16 to 64 µg/mL	64 µg/mL	0.06 to 16 µg/mL	2 to 64 µg/mL	–
COc1cc2nc(Nc3nc(O)c4cccc(OC)c4n3)nc(CF)c2cc1OC.O=C(O)C(F)(F)F [Example 87, 2-(4-Fluoromethyl-6,7-dimethoxy-quinazolin-2-ylamino)-8-methoxy-quinazolin-4-ol trifluoroacetate salt]	–	–	16 to 32 µg/mL	16 to 64 µg/mL	64 µg/mL	0.06 to 16 µg/mL	2 to 64 µg/mL	–
COCCOc1ccc2nc(Nc3nc(O)c4c(OC)cccc4n3)nc(C)c2c1.O=C(O)C(F)(F)F [Example 88, 5-Methoxy-2-[6-(2-methoxy-ethoxy)-4-methyl-quinazolin-2-ylamino]-quinazolin-4-ol trifluoroacetate salt]	–	–	16 to 32 µg/mL	16 to 64 µg/mL	64 µg/mL	0.06 to 16 µg/mL	2 to 64 µg/mL	–
COCCOc1cc2nc(Nc3nc(O)c4cccc(OC)c4n3)nc(C)c2cc1OCCOC.O=C(O)C(F)(F)F [Example 89, 2-[6,7-Bis-(2-methoxy-ethoxy)-4-methyl-quinazolin-2-ylamino]-8-methoxy-quinazolin-4-ol trifluoroacetate salt]	–	–	16 to 32 µg/mL	16 to 64 µg/mL	64 µg/mL	0.06 to 16 µg/mL	2 to 64 µg/mL	–
COc1cc2nc(Nc3nc(O)c4c(OC)cccc4n3)nc(CF)c2cc1OC.O=C(O)C(F)(F)F [Example 90, 2-(4-Fluoromethyl-6,7-dimethoxy-quinazolin-2-ylamino)-5-methoxy-quinazolin-4-ol trifluoroacetate salt]	–	–	16 to 32 µg/mL	16 to 64 µg/mL	64 µg/mL	0.06 to 16 µg/mL	2 to 64 µg/mL	–
COc1cccc2c(O)nc(Nc3nc(C)c4c(OC)ccc(C)c4n3)nc12.O=C(O)C(F)(F)F [Example 91, 8-Methoxy-2-(5-methoxy-4,8-dimethyl-quinazolin-2-ylamino)-quinazolin-4-ol trifluoroacetate salt]	–	–	16 to 32 µg/mL	16 to 64 µg/mL	64 µg/mL	0.06 to 16 µg/mL	2 to 64 µg/mL	–
COc1cc2c(C)nc(Nc3nc(O)c4c(OC)cccc4n3)nc2cc1F.O=C(O)C(F)(F)F [Example 94, 2-(7-Fluoro-6-methoxy-4-methyl-quinazolin-2-ylamino)-5-methoxy-quinazolin-4-ol trifluoroacetate salt]	–	–	16 to 32 µg/mL	16 to 64 µg/mL	64 µg/mL	0.06 to 16 µg/mL	2 to 64 µg/mL	–
COc1ccc(OC)c2c(O)nc(Nc3nc(C)c4ccc5c(c4n3)OCCO5)nc12.O=C(O)C(F)(F)F [Example 95, 5,8-Dimethoxy-2-(8-methyl-2,3-dihydro-1,4-dioxa-5,7-diaza-phenanthren-6-ylamino)-quinazolin-4-ol trifluoroacetate salt]	–	–	16 to 32 µg/mL	16 to 64 µg/mL	64 µg/mL	0.06 to 16 µg/mL	2 to 64 µg/mL	–
COc1cc2nc(Nc3nc(O)c4cccc(F)c4n3)nc(C)c2cc1OC.O=C(O)C(F)(F)F [Example 96, 2-(6,7-Dimethoxy-4-methyl-quinazolin-2-ylamino)-8-fluoro-quinazolin-4-ol trifluoroacetate salt]	–	–	16 to 32 µg/mL	16 to 64 µg/mL	64 µg/mL	0.06 to 16 µg/mL	2 to 64 µg/mL	–
CCOc1cccc2c(O)nc(Nc3nc(C)c4cc(OC)c(OC)cc4n3)nc12.O=C(O)C(F)(F)F [Example 97, 2-(6,7-Dimethoxy-4-methyl-quinazolin-2-ylamino)-8-ethoxy-quinazolin-4-ol trifluoroacetate salt]	–	–	16 to 32 µg/mL	16 to 64 µg/mL	64 µg/mL	0.06 to 16 µg/mL	2 to 64 µg/mL	–
COc1cc(OC)c2nc(Nc3nc(O)c4cccc(F)c4n3)nc(C)c2c1.O=C(O)C(F)(F)F [Example 98, 2-(6,8-Dimethoxy-4-methyl-quinazolin-2-ylamino)-8-fluoro-quinazolin-4-ol trifluoroacetate salt]	–	–	16 to 32 µg/mL	16 to 64 µg/mL	64 µg/mL	0.06 to 16 µg/mL	2 to 64 µg/mL	–
COc1cc2nc(Nc3nc(O)c4cc(OCCNC(CO)CC(C)C)ccc4n3)nc(C)c2cc1OC (stereo not shown) [Example 162, 2-(6,7-Dimethoxy-4-methyl-quinazolin-2-ylamino)-6-{2-[(1-hydroxymethyl-3-methylbutyl)-amino]-ethoxy}-quinazolin-4-olTrifluoroacetate salt]	–	–	–	–	–	–	–	64 µg/mL
